pIC50: −log10 of the molar value.
Legend:
Assay type in all cases: biochemical
Human Factor XIIa = Human Factor XIIa (Homo sapiens (Human), UniProt P00748); experiment: Determination of FXIIa inhibition (fluorogenic substrate H-DPro-Phe-Arg-AFC, IC50 assay); conditions: substrate H-DPro-Phe-Arg-AFC at Km, 25° C.; class scale A-G
Summary of the method: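 Human FXIIa incubated at 25° C with fluorogenic substrate H-DPro-Phe-Arg-AFC at its Km concentration and varying compound concentrations. Fluorescence release monitored over 5 min at 25° C; linear rate expressed as % of uninhibited activity to derive IC50.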

Plasma Kallikrein = Plasma Kallikrein (Homo sapiens (Human), UniProt P03952); experiment: Determination of related protease inhibition: Plasma Kallikrein (fluorogenic substrate at Km); conditions: 25° C., read-out: IC50 (human PKal)
Plasma Kallikrein, sequence (P03952 391-638): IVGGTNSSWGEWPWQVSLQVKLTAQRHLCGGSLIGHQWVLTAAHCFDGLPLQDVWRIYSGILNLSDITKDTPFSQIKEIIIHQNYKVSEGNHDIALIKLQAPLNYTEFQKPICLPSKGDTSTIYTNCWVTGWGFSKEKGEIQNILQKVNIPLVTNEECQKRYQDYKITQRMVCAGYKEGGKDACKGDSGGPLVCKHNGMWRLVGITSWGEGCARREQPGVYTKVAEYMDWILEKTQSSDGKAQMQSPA
Plasma Kallikrein, sequence (P03952 20-390 partner): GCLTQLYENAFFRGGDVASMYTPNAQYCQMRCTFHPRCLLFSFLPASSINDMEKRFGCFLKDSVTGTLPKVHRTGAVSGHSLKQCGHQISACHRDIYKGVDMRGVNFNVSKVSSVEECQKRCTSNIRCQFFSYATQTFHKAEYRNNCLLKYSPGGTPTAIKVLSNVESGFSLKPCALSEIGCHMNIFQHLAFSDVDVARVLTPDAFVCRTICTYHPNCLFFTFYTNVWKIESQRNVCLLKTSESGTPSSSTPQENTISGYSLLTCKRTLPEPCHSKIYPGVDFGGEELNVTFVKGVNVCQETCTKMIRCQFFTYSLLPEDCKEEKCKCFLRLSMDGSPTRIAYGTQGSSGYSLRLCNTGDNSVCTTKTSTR
Summary of the method: (§1)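 Human enzymes incubated with varied inhibitor concentrations and fluorogenic substrate at Km. Fluorescence release followed over 5 min at 25 °C; linear rate expressed as % activity, IC50 as inhibitor concentration giving 50% inhibition of uninhibited enzyme.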

KLK1 = KLK1 (Homo sapiens (Human), UniProt P06870); experiment: Determination of related protease inhibition: KLK1 (fluorogenic substrate at Km); conditions: 25° C.
KLK1, sequence (P06870 25-262): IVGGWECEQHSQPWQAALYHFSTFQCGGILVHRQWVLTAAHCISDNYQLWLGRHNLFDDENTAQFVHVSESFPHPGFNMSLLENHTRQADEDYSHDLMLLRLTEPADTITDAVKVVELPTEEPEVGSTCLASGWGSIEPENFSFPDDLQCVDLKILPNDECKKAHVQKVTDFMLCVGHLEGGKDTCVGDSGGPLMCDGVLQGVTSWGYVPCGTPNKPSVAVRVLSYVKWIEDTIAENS
Summary of the method: as §1

FXa = FXa (Homo sapiens (Human), UniProt P00742); experiment: Determination of related protease inhibition: FXa (fluorogenic substrate at Km); conditions: 25° C.
FXa, sequence (P00742 235-488): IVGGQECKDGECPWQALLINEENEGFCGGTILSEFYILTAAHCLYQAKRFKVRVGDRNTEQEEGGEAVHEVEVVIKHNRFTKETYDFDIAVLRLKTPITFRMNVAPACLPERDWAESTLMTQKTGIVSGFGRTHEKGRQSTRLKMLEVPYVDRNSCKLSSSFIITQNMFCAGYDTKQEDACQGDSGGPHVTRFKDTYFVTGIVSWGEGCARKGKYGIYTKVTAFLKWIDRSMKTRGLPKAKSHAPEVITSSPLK
FXa, sequence (P00742 41-179 partner): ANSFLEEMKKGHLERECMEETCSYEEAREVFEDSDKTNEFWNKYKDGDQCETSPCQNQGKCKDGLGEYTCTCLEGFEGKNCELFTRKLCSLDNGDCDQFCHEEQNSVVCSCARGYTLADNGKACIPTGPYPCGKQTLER
Protocol: (§2) Determination of Related Protease Inhibition
(§3) In vitro inhibition of related proteases was determined using an ([…] assay based on standard literature methods (see e.g. Shori et al., Biochem. Pharmacol., 1992, 43, 1209; Bouckaert et al., European Journal of Medicinal Chemistry 110 (2016) 181). Human serine protease enzymes Plasma Kallikrein, KLK1, FXa, Plasmin, Thrombin and Trypsin were assayed for enzymatic activity using an appropriate fluorogenic substrate at Km concentration, FXIa at fixed substrate concentration of 100 μM, and various concentrations of the test compound. Protease activity was measured by monitoring the accumulation of liberated fluorescence from the substrate over […]. The linear rate of fluorescence increase per minute was expressed as percentage (%) activity. IC50 values were calculated as the concentration of inhibitor giving 50% inhibition of the uninhibited enzyme activity (100%).

Thrombin = Thrombin (Homo sapiens (Human), UniProt P00734); experiment: Determination of related protease inhibition: Thrombin (fluorogenic substrate at Km); conditions: 25° C.
Protocol: as §2, §3

Human Factor XIIa, sequence (P00748 373-615): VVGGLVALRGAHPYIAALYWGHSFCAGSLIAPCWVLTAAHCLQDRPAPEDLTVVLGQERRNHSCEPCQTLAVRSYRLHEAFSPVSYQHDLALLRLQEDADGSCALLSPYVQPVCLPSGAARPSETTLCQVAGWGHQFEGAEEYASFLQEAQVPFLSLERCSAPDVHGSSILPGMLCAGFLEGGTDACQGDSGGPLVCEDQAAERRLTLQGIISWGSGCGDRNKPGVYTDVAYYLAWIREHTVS

Row | pIC50 (Human Factor XIIa) | pIC50 (Plasma Kallikrein) | pIC50 (KLK1) | pIC50 (FXa) | pIC50 (Thrombin) | SMILES
1 | 6.52 to 7.00 | 5.00 to 5.52 | 5.52 to 6.00 | 6.00 to 6.52 | 5.52 to 6.00 | CN1CC2CC1CC2COc1cc(CNc2ccc3c(N)nccc3c2)ccn1 (stereo not drawn) [Example 4277, N6-((2-((2-methyl-2-azabicyclo[2.2.1]heptan-5-yl)methoxy)pyridin-4-yl)methyl)isoquinoline-1,6-diamine]
2 | 5.52 to 6.00 | 5.00 to 5.52 | 4.40 to 5.00 | 4.40 to 5.00 | 4.40 to 5.00 | Cn1ccnc1COCc1ccc(CNc2cccc3c(N)nccc23)c(F)c1 [Example 2207, N5-(2-fluoro-4-(((1-methyl-1H-imidazol-2-yl)methoxy)methyl)benzyl)isoquinoline-1,5-diamine]
3 | 6.52 to 7.00 | < 4.40 | 5.00 to 5.52 | 5.52 to 6.00 | < 4.40 | CN1CC2CCC(C1)C2COc1cc(CNc2cccc3c(N)nccc23)ccn1 (stereo not drawn) [Example 4278, 5-N-[[2-[(3-methyl-3-azabicyclo[3.2.1]octan-8-yl)methoxy]-4-pyridyl]methyl]isoquinoline-1,5-diamine]
4 | 4.40 to 5.00 | < 4.40 | 4.40 to 5.00 | < 4.40 | < 4.40 | Nc1ncc(Cl)c2cc(NCc3ccc(CCN4CCOCC4)cc3F)ccc12 [Example 2215, 4-chloro-6-N-({2-fluoro-4-[2-(morpholin-4-yl)ethyl]phenyl}methyl)isoquinoline-1,6-diamine]
5 | 6.52 to 7.00 | 4.40 to 5.00 | 5.52 to 6.00 | 6.00 to 6.52 | 4.40 to 5.00 | CN1CCC(CNc2cc(CNc3ccc4c(N)nccc4c3)ccn2)CC1 [Example 4284, 6-N-[(2-{[(1-methylpiperidin-4-yl)methyl]amino}pyridin-4-yl)methyl]isoquinoline-1,6-diamine]
6 | 5.52 to 6.00 | 4.40 to 5.00 | 5.52 to 6.00 | 5.00 to 5.52 | 5.00 to 5.52 | CN1CC(C2CN(c3cc(CNc4ccc5c(N)nccc5c4)ccn3)C2)C1 [Example 5435, N6-((2-(1′-methyl-[3,3′-biazetidin]-1-yl)pyridin-4-yl)methyl)isoquinoline-1,6-diamine]
7 | 6.00 to 6.52 | < 4.40 | 4.40 to 5.00 | < 4.40 | < 4.40 | CN1CCC(NC(=O)c2cc(CNc3cccc4c(N)nccc34)ccn2)CC1 [Example 4289, 4-(((1-aminoisoquinolin-5-yl)amino)methyl)-N-(1-methylpiperidin-4-yl)picolinamide]
8 | 6.00 to 6.52 | 4.40 to 5.00 | 6.00 to 6.52 | 4.40 to 5.00 | 5.00 to 5.52 | CN1CCN(CCc2ccc(CNc3ccc4c(N)nccc4c3)c(F)c2)CC1 [Example 2181, 6-N-({2-fluoro-4-[2-(4-methylpiperazin-1-yl)ethyl]phenyl}methyl)isoquinoline-1,6-diamine]
9 | 6.00 to 6.52 | < 4.40 | 5.00 to 5.52 | < 4.40 | < 4.40 | CN1CCC(COc2cc(CNc3cccc4c(N)nccc34)cc(C(F)(F)F)n2)CC1 [Example 4281, 5-N-[[2-[(1-methyl-4-piperidyl)methoxy]-6-(trifluoromethyl)-4-pyridyl]methyl]isoquinoline-1,5-diamine]
10 | 6.52 to 7.00 | < 4.40 | < 4.40 | 4.40 to 5.00 | 4.40 to 5.00 | Cc1cc2c(NCc3ccc(NCC4CCN(C)CC4)nc3)ccnc2[nH]1 [Example 1202, 2-Methyl-N-((6-(((1-methylpiperidin-4-yl)methyl)amino)pyridin-3-yl)methyl)-1H-pyrrolo[2,3-b]pyridin-4-amine]
11 | 5.00 to 5.52 | < 4.40 | 4.40 to 5.00 | < 4.40 | < 4.40 | Cn1ccnc1CCCOc1ncc(CNc2cccc3c(N)nccc23)cn1 [Example 1035, N5-((2-(3-(1-methyl-1H-imidazol-2-yl)propoxy)pyrimidin-5-yl)methyl)isoquinoline-1,5-diamine]
12 | 7.00 to 8.00 | 5.00 to 5.52 | 6.00 to 6.52 | 6.52 to 7.00 | 6.00 to 6.52 | Nc1nccc2cc(NCc3ccnc(OCC4CCn5ccnc5C4)c3)ccc12 (single isomer, unassigned) [Example 4267, 6-N-({2-[(7S*)-5H,6H,7H,8H-imidazo[1,2-a]pyridin-7-ylmethoxy]pyridin-4-yl}methyl)isoquinoline-1,6-diamine]
13 | 6.00 to 6.52 | 4.40 to 5.00 | 4.40 to 5.00 | < 4.40 | < 4.40 | CC(C)N1CC2(CN(Cc3ccc(CNc4cccc5c(N)nccc45)c(F)c3)C2)C1 [Example 1036, N5-(2-fluoro-4-((6-isopropyl-2,6-diazaspiro[3.3]heptan-2-yl)methyl)benzyl)isoquinoline-1,5-diamine]
14 | 6.00 to 6.52 | < 4.40 | 4.40 to 5.00 | < 4.40 | < 4.40 | CN1CCN(CCc2ccc(CNc3cccc4c(N)nccc34)c(F)c2)CC1 [Example 2182, 5-N-({2-fluoro-4-[2-(4-methylpiperazin-1-yl)ethyl]phenyl}methyl)isoquinoline-1,5-diamine]
15 | 5.00 to 5.52 | < 4.40 | < 4.40 | < 4.40 | < 4.00 | CN1CCC(CNc2ccc(CNc3ccc4cnccc4c3F)cn2)CC1 [Example 1224, 5-fluoro-N-((6-(((1-methylpiperidin-4-yl)methyl)amino)pyridin-3-yl)methyl)isoquinolin-6-amine]
16 | 6.52 to 7.00 | < 4.40 | 5.00 to 5.52 | 4.40 to 5.00 | 4.40 to 5.00 | Nc1nccc2c(NCc3ccnc(OCC4CCn5c(nnc5C(F)F)C4)c3)cccc12 (stereo not drawn) [Example 4467, N5-((2-((3-(difluoromethyl)-5,6,7,8-tetrahydro-[1,2,4]triazolo[4,3-a]pyridin-7-yl)methoxy)pyridin-4-yl)methyl)isoquinoline-1,5-diamine]
17 | 7.00 to 8.00 | < 4.40 | 5.00 to 5.52 | 4.40 to 5.00 | < 4.40 | CN1CCC(CNc2cc(CNc3ccc4c(N)ncc(Cl)c4c3)ccn2)CC1 [Example 4285, 4-Chloro-N6-((2-(((1-methylpiperidin-4-yl)methyl)amino)pyridin-4-yl)methyl)isoquinoline-1,6-diamine]
18 | 6.00 to 6.52 | 4.40 to 5.00 | 5.00 to 5.52 | 4.40 to 5.00 | 4.40 to 5.00 | Nc1nccc2c(NCc3ccc(OCC4CCn5ccnc5C4)nc3)cccc12 (single isomer, unassigned) [Example 1030, (S*)-N5-((6-((5,6,7,8-tetrahydroimidazo[1,2-a]pyridin-7-yl)methoxy)pyridin-3-yl)methyl)isoquinoline-1,5-diamine]
19 | 5.52 to 6.00 | < 4.40 | 5.00 to 5.52 | 5.52 to 6.00 | 4.40 to 5.00 | CC(=O)N1CC2CC1CC2COc1cc(CNc2cccc3c(N)nccc23)ccn1 (stereo not drawn) [Example 4274, 1-(5-(((4-(((1-Aminoisoquinolin-5-yl)amino)methyl)pyridin-2-yl)oxy)methyl)-2-azabicyclo[2.2.1]heptan-2-yl)ethan-1-one]
20 | 5.52 to 6.00 | < 4.40 | 4.40 to 5.00 | < 4.40 | < 4.40 | CN1CC(OCc2ccc(CNc3cccc4c(N)nccc34)c(F)c2)CCC1=O (stereo not drawn) [Example 2209, 5-[[4-[[(1-amino-5-isoquinolyl)amino]methyl]-3-fluoro-phenyl]methoxy]-1-methyl-piperidin-2-one]
21 | 5.00 to 5.52 | < 4.40 | 4.40 to 5.00 | 5.00 to 5.52 | < 4.40 | CN1CCC(COc2cc(CNc3nccc4c(N)ccnc34)ccn2)CC1 [Example 4273, N8-((2-((1-methylpiperidin-4-yl)methoxy)pyridin-4-yl)methyl)-1,7-naphthyridine-4,8-diamine]
22 | 6.52 to 7.00 | 5.00 to 5.52 | 6.00 to 6.52 | 7.00 to 8.00 | 6.00 to 6.52 | CN1CC2C(COc3cc(CNc4ccc5c(N)nccc5c4)ccn3)C2C1 (stereo not drawn) [Example 4269, N6-((2-((3-methyl-3-azabicyclo[3.1.0]hexan-6-yl)methoxy)pyridin-4-yl)methyl)isoquinoline-1,6-diamine]
23 | 6.00 to 6.52 | 4.40 to 5.00 | 5.00 to 5.52 | < 4.40 | < 4.40 | CN1CCC(CNc2cc(CNc3cccc4c(N)nccc34)ccn2)CC1 [Example 4286, N5-((2-(((1-methylpiperidin-4-yl)methyl)amino)pyridin-4-yl)methyl)isoquinoline-1,5-diamine]
24 | 6.52 to 7.00 | 4.40 to 5.00 | 5.52 to 6.00 | < 4.40 | < 4.40 | CC(C)N1CCC(CN(CCCO)C(=O)c2cccc(CNc3cccc4c(N)nccc34)c2)CC1 [Example 4441, 3-{[(1-aminoisoquinolin-5-yl)amino]methyl}-N-(3-hydroxypropyl)-N-[(1-isopropylpiperidin-4-yl)methyl]benzamide]

Reference: patent US20240059691A1 (KALVISTA PHARMACEUTICALS LIMITED, priority 2020, published 2024)
